Test results taken from patent US7947738B2, “Bicyclic γ-amino acid derivative” (Daiichi Sankyo Company, Ltd., priority 2007, dated 2011).
Counter-ions that a name gives are not always drawn. Like-named read-outs stand apart in the source and are kept apart here.

Key:
[1] = molecular target: T1, human Cacna2d1 (human calcium channel subunit α2δ1) (Homo sapiens, UniProt P54289); test: Cacna2d1/GBP binding reaction inhibitory activity (3H-GBP binding to human Cacna2d1-expressing cell membrane fraction); details: concentration inhibiting 50% of Cacna2d1/GBP binding, 3H-GBP 4.5 nM, 4° C.
T1 construct: 293 cells were transfected with the human Cacna2d1 expression plasmid pRK/hCacna2d1 constructed in paragraph a); expressed in transfected cells; membrane fraction
Description: 293 cells were transfected with the human Cacna2d1 expression plasmid pRK/hCacna2d1 constructed in paragraph a), and a cell line stably expressing human Cacna2d1 was obtained with human Cacna2d1 protein expression as an index. Specifically, 2×10^6 293 cells were inoculated onto a φ6 cm dish and cultured for 12 hours. Then, the cells were cotransfected with 5 μg of pRK/hCacna2d1 and 0.5 μg of a neomycin-resistant gene expression plasmid pSV2neo (Clontech) using a transfection reagent Lipofectamine Plus (Invitrogen Corp.) according to the protocol provided for the reagent.
The human Cacna2d1-expressing 293 cells obtained in paragraph b) were cultured in large scale in DMEM (Invitrogen Corp.) supplemented with 10% fetal bovine serum (Cansera International, Inc.) and 500 μg/ml G418 (Invitrogen Corp.), and the cells were collected. A protease inhibitor (Complete EDTA free (Roche Applied Science)) was added in an amount recommended for the reagent to a binding assay buffer (10 mM MOPS (pH 7.4), 10 mM HEPES (pH 7.4), 100 mM NaCl) to prepare a membrane fraction preparation buffer. The collected cells were washed with the membrane fraction preparation buffer and then homogenized using an ultrasonicator. Then, the homogenate was centrifuged at 12,000 rpm at 4° C. for 1 hour using a centrifuge. The supernatant was discarded, and the precipitate was suspended in the membrane fraction preparation buffer. The procedure from the ultrasonication using a ultrasonicator to the suspension of the precipitate after centrifugation was further repeated three times, and the obtained suspension was used as a human Cacna2d1-expressing cell membrane fraction. The total level of proteins contained in the membrane fraction was calculated from UV absorbance at a wavelength of 280 nm.
The human Cacna2d1-expressing cell membrane fraction and GBP labeled with a radioisotope ^3H (hereinafter, referred to as ^3H-GBP; Tocris Cookson Ltd.) were diluted with a binding assay buffer (10 mM MOPS (pH 7.4), 10 mM HEPES (pH 7.4), 100 mM NaCl) at a final concentration of 2.5 mg/ml in terms of the total protein level and a final ^3H-GBP concentration of 4.5 nM, respectively, to prepare 120 μl of a reaction solution, which was in turn left standing at 4° C. for 3 hours. This reaction product was added to wells of a filter plate (UniFilter 350 GF/B (Whatman)) and filtered through the filter. Then, a washing procedure involving the addition of 350 μl of a binding assay buffer (10 mM MOPS (pH 7.4), 10 mM HEPES (pH 7.4), 100 mM NaCl) and filtration through the filter was repeated three times. The filter plate was thoroughly dried, and the underside was sealed. After addition of 50 μl of Microscint 20 (PerkinElmer Inc.), the upper surface was also sealed, and radiation derived from the radioisotope ^3H remaining on the filter was counted using TopCount (PerkinElmer Inc.). From the obtained value, a value obtained by adding unlabeled GBP (SIGMA-ALDRICH INC.) at a final concentration of 20 μM to the present assay was subtracted as that derived from nonspecific adsorption, and the obtained value was used as the specific binding level of ^3H-GBP to Cacna2d1 (unit: “count”).
Each test compound was added at various concentrations to the Cacna2d1/GBP binding reaction detection assay constructed in paragraph a), and the binding level was measured by the method described in paragraph a). Then, with the Cacna2d1/GBP specific binding level obtained by the addition of the compound at a concentration of x nM defined as “binding level [x]” and the Cacna2d1/GBP binding inhibitory rate thereagainst defined as “inhibitory rate [x]”, the inhibitory rate (%) was determined based on the following equation: Inhibitory rate [x](%)=(1−(binding level [x]/binding level))×100, wherein the binding level refers to the binding level of ^3H-GBP obtained without the addition of the compound.
The inhibitory rate was plotted against the concentration.

[2] = test system: mice suffering from mechanical hyperalgesia; test: Mechanical hyperalgesia assay (von Frey filament pain score); format: in vivo; details: oral administration, dose that offers 50% improvement relative to the pain score of vehicle-administered group
Description: In the present invention, mice suffering from mechanical hyperalgesia were used in evaluation.
The mice were acclimatized for 30 minutes in a plastic cage for measurement. Then, the test compound was orally administered to the mice, which were in turn evaluated for mechanical hyperalgesia at a measurement time predetermined by a person in charge of the test. The evaluation of mechanical hyperalgesia was conducted by a partial modification of the method of Takasaki et al. (Pain 86 95-101, 2000) to confirm the effect of the test compound on mechanical hyperalgesia. Specifically, mechanical hyperalgesia was evaluated by assessing, based on scores according to the following criteria, behavior induced by pressing 1.4 g of von Frey filament onto the sole of the animal:
0: no response, 1: withdrawal from von Frey filament, and 2: shaking or licking of the hind paw immediately after the stimulation.
In one measurement, 6 stimulations were given to the mice, and the total score was used as a pain score.
The test compound was evaluated by calculating ID50, which is the dose of the compound that offers 50% improvement relative to the pain score of a vehicle-administered group.

[3] = test system: postherpetic neuralgia; details: patients' own evaluations; Non-Patent Document 3; cited from earlier work
[4] = test system: painful diabetic neuropathy; details: patients' own evaluations; Non-Patent Document 4; cited from earlier work

T1 sequence (P54289 25-1091 isoform P54289-2 limits assumed): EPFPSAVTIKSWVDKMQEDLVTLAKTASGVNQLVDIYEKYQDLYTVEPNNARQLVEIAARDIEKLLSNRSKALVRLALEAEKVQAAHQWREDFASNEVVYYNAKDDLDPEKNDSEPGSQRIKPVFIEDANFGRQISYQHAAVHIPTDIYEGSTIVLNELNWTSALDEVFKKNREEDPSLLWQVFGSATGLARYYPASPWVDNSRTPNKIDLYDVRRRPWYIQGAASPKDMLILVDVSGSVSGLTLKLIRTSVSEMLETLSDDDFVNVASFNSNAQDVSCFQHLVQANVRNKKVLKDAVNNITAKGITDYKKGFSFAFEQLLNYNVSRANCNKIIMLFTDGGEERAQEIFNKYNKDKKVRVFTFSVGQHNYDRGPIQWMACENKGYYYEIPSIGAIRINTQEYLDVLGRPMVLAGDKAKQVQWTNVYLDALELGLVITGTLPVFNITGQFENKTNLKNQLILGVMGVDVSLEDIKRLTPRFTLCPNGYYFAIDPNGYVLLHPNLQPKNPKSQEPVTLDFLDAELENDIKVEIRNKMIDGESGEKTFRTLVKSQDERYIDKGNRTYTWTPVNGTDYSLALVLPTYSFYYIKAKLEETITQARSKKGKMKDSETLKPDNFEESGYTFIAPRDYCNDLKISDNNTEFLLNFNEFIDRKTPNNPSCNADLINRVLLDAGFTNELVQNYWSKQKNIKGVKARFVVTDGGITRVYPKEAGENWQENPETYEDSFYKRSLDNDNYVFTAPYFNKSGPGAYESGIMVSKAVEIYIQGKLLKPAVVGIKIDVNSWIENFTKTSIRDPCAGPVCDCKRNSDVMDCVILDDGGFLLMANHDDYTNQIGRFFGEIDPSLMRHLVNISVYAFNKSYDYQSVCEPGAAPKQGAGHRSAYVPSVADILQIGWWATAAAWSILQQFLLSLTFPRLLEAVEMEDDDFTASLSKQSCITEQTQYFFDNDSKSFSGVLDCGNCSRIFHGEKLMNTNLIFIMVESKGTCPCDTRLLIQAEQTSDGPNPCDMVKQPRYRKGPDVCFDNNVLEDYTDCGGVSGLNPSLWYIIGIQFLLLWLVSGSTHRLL

With `CCC(C)C1=CC2C(C1)CC2(CN)CC(=O)O` (mixture of isomers) [Example 13, (±)-[(1S,5R,6R)-6-aminomethyl-3-sec-bicyclo[3.2.0]hept-3-en-6-yl]acetic acid] the IC50 ([1]; IC50 (nM)) was 200 nM.
For `CCC1=C[C@H]2[C@@H](C1)C[C@@]2(CNO)CC(=O)O.Cl` (racemic), the melting point was 98 to 99 °C.
With `NC[C@@]1(CC(=O)O)C[C@@H]2CC=C[C@@H]21` (racemic) [Example 1, (±)-[(1S,5R,6R)-6-(aminomethyl)bicyclo[3.2.0]hept-3-en-6-yl]acetic acid] the IC50 ([1]; IC50 (nM)) was 51 nM.
Compound `CC1=C[C@H]2[C@@H](C1)C[C@@]2(CN)CC(=O)O` (racemic) [Example 7, (±)-[(1S,5R,6R)-6-aminomethyl-3-methylbicyclo[3.2.0]hept-3-en-6-yl]acetic acid] has an IC50 ([1]; IC50 (nM)) of 36 nM.
With `CCC1=C[C@H]2[C@@H](C1)C[C@@]2(CN)CC(=O)O` (racemic) [Example 8, (±)-[(1S,5R,6R)-6-aminomethyl-3-ethylbicyclo[3.2.0]hept-3-en-6-yl]acetic acid] the IC50 ([1]; IC50 (nM)) was 28 nM.
`CCCC1=C[C@H]2[C@@H](C1)C[C@@]2(CN)CC(=O)O` (racemic) [Example 9, (±)-[(1S,5R,6R)-6-aminomethyl-3-propylbicyclo[3.2.0]hept-3-en-6-yl]acetic acid] gave an IC50 ([1]; IC50 (nM)) of 32 nM.
Work on `CCCCC1=C[C@H]2[C@@H](C1)C[C@@]2(CN)CC(=O)O` (racemic) [Example 10, (±)-[(1S,5R,6R)-6-aminomethyl-3-butylbicyclo[3.2.0]hept-3-en-6-yl]acetic acid] yielded an IC50 ([1]; IC50 (nM)) of 28 nM.
`CC(C)C1=C[C@H]2[C@@H](C1)C[C@@]2(CN)CC(=O)O` (racemic) [Example 11, (±)-[(1S,5R,6R)-6-aminomethyl-3-isopropylbicyclo[3.2.0]hept-3-en-6-yl]acetic acid] showed an IC50 ([1]; IC50 (nM)) of 89 nM.
For `CC(C)CC1=C[C@H]2[C@@H](C1)C[C@@]2(CN)CC(=O)O` (racemic) [Example 12, (±)-[(1S,5R,6R)-6-aminomethyl-3-isobutylbicyclo[3.2.0]hept-3-en-6-yl]acetic acid], the IC50 ([1]; IC50 (nM)) was 32 nM.
In the case of `NC[C@@]1(CC(=O)O)C[C@@H]2CC(C3CCCC3)=C[C@@H]21` (racemic) [Example 14, (±)-[(1S,5R,6R)-6-aminomethyl-3-cyclopentylbicyclo[3.2.0]hept-3-en-6-yl]acetic acid], the IC50 ([1]; IC50 (nM)) is reported as 55 nM.
In the case of `C=CCC1=C[C@H]2[C@@H](C1)C[C@@]2(CN)CC(=O)O` (racemic) [Example 15, (±)-[(1S,5R,6R)-6-aminomethyl-3-allylbicyclo[3.2.0]hept-3-en-6-yl]acetic acid], the IC50 ([1]; IC50 (nM)) is reported as 73 nM.
With `C[C@]12C=CC[C@H]1C[C@]2(CN)CC(=O)O` (racemic) [Example 16, (±)-[(1S,5R,6S)-6-aminomethyl-5-methylbicyclo[3.2.0]hept-3-en-6-yl]acetic acid] the IC50 ([1]; IC50 (nM)) was 65 nM.
With `CC1C=C[C@@H]2[C@H]1C[C@@]2(CN)CC(=O)O` (mixture of isomers) [Example 17, (±)-[(1S,5R,6R)-6-aminomethyl-2-methylbicyclo[3.2.0]hept-3-en-6-yl]acetic acid] the IC50 ([1]; IC50 (nM)) was 120 nM.
In the case of `CC(=O)OCC1=C[C@H]2[C@@H](C1)C[C@@]2(CN)CC(=O)O` (racemic) [Example 18, (±)-[(1R,5R,6R)-3-(acetoxymethyl)-6-(aminomethyl)bicyclo[3.2.0]hept-3-en-6-yl]acetic acid], the IC50 ([1]; read-out: IC50) is reported as 670 nM.
In the case of `CC1=C(C)[C@H]2[C@@H](C1)C[C@@]2(CN)CC(=O)O` (racemic) [Example 20, (±)-[(1S,5R,6R)-6-aminomethyl-3,4-dimethylbicyclo[3.2.0]hept-3-en-6-yl]acetic acid p-toluenesulfonate], the IC50 ([1]; IC50 (nM)) is reported as 100 nM.
`CSCC1=C[C@H]2[C@@H](C1)C[C@@]2(CN)CC(=O)O` (racemic) [Example 24, (±)-{(1R,5R,6R)-6-aminomethyl-3-[(methylthio)methyl]bicyclo[3.2.0]hept-3-en-6-yl}acetic acid] gave an IC50 ([1]; IC50 (nM)) of 85 nM.
In the case of `CCC1=C[C@@H]2[C@H](C1)C[C@]2(CN)CC(=O)O` (single isomer, unassigned) [Example 21], the IC50 ([1]; IC50 (nM)) is reported as 14 nM.
For `CCC1=C[C@H]2[C@@H](C1)C[C@@]2(CN)CC(=O)O` (single isomer, unassigned) [Example 23], the IC50 ([1]; IC50 (nM)) was 41 nM.
For `NC[C@]1(CC(=O)O)C[C@H]2CC=C[C@H]21` [Example 2, [(1R,5S,6S)-6-(aminomethyl)bicyclo[3.2.0]hept-3-en-6-yl]acetic acid], the ID50 [2] was 10.4 mg/kg and the IC50 ([1]; IC50 (nM)) was 27 nM.
Compound `NC[C@]1(CC(=O)O)C[C@H]2CC=C[C@H]21` [Example 5, [(1R,5S,6S)-6-(aminomethyl)bicyclo[3.2.0]hept-3-en-6-yl]acetic acid hydrochloride] has an IC50 ([1]; IC50 (nM)) of 24 nM.
In the case of `Cl.NC[C@]1(CC(=O)O)C[C@H]2CC=C[C@H]21` [Example 6, [(1R,5S,6S)-6-(aminomethyl)bicyclo[3.2.0]hept-3-en-6-yl]acetic acid benzenesulfonate], the melting point is reported as 161 to 162 °C and the IC50 ([1]; IC50 (nM)) is reported as 26 nM.
With `CCC1=C[C@@H]2[C@H](C1)C[C@]2(CN)CC(=O)O` [Example 22, [(1R,5S,6S)-6-aminomethyl-3-ethylbicyclo[3.2.0]hept-3-en-6-yl]acetic acid p-toluenesulfonate] the IC50 ([1]; IC50 (nM)) was 10 nM.
With `CCC1=C[C@@H]2[C@H](C1)C[C@]2(CN)CC(=O)O` [Example 31, [(1R,5S,6S)-6-(aminomethyl)-3-ethylbicyclo[3.2.0]hept-3-en-6-yl]acetic acid benzenesulfonate] the IC50 ([1]; IC50 (nM)) was 14 nM.
In the case of `NCC1(CC(=O)O)CCCCC1` [gabapentine], the “efficacy in the treatment of postherpetic neuralgia” value [3] is listed as “approximately 60%”.
In the case of `CC(C)C[C@H](CN)CC(=O)O` [pregabalin], the “efficacy in the treatment of painful diabetic neuropathy” value [4] is given as “approximately 50%”.
